Literature values, collected in patent publication US12090168B2, “Glucose glycans for treating urea cycle disorders” (DSM Nutritional Products, LLC, priority 2017, dated 2024).

Details: administered in combination with lactulose

CO[C@H]1/C=C/O[C@@]2(C)Oc3c(C)c(O)c4c(O)c(c5c(nc6cc(C)ccn65)c4c3C2=O)NC(=O)/C(C)=C\C=C\[C@H](C)[C@H](O)[C@@H](C)[C@@H](O)[C@@H](C)[C@H](OC(C)=O)[C@@H]1C [rifaximin]
reduction of episodes of OHE: approximately 50%
